{"source": "patent US20200102349A1", "about": "“PEPTIDE REAGENTS AND METHODS FOR DETECTION AND TARGETING OF DYSPLASIA, EARLY CANCER AND CANCER” (THE REGENTS OF THE UNIVERSITY OF MICHIGAN, priority 2014, published 2020)", "key": {"HT29 cells [1]": {"test_system": "HT29 cells", "test": "Peptide binding to colorectal cancer cells on confocal microscopy (HT29)", "format": "cell-based, human", "details": "HT29, 5 μM, 3 min", "protocol": "(§1) HT29, SW480, and SW620 cells (˜10^3) were grown on cover slips to ˜80% confluence. The cells were washed 1× with PBS and incubated with 5 μM of QRH*-Cy5.5 and PEH*-Cy5.5 for 3 min at RT. The cells were then washed 3× in PBS, fixed with 4% paraformaldehyde (PFA) for 5 min, washed 1× with PBS, and then mounted on glass slides with ProLong Gold reagent containing DAPI (Invitrogen). Confocal fluorescence images were collected with FITC, Cy5.5, and DAPI filters (Leica Inverted SPSX Confocal Microscope System) using a 63× oil-immersion objective. Fluorescence intensities from 5 cells in 2 independent images were quantified using custom Matlab (Mathworks) software.\n(§2) We assessed binding of QRH*-Cy5.5 to a panel of colorectal cancer cells that vary in EGFR expression level on confocal microscopy. We observed binding of QRH*-Cy5.5 to the surface (arrows) of HT29, SW480, and SW620 cells with decreasing strength, FIG. 3A-C, scale bars 30 μm. […] Results are an average of 10 cells from 2 independent images. EGFR expression is shown on Western blot, FIG. 3H."}, "human colonic dysplasia": {"test_system": "human colonic dysplasia", "test": "Binding of EGFR peptide and antibody to human colonic dysplasia specimens, confocal microscopy", "details": "for log transformed fluorescence intensity, mean (±std): 5 μM, 10 min", "protocol": "For the in vivo fluorescence images of mouse colon, the T/B ratios for flat dysplasia and polyps were log-transformed to improve normality. The fold-change between classification pairs was estimated using the anti-log of the difference in the log-transformed data. Differences in results between the experimental and control peptides were evaluated on t-test. *P<0.05 was considered significant. Similar methods were used to evaluate the ex vivo fluorescence images of human colonic specimens. The results were plotted on a receiver-operator characteristic (ROC) curve. Co-localization of peptide and antibody binding was evaluated on Pearson's correlation coefficient. All analyses were performed using custom Matlab software (MathWorks Inc).\nSpecimens of human colonic mucosa were obtained from biopsy during routine colonoscopy, frozen in OCT, cut in 10 μm sections, and incubated with QRH*-Cy5.5 (5 μM) in 1×PBS for 10 min at RT. The sections were washed 3× with PBS and incubated overnight at 4° C. with 1:1000 dilution of primary monoclonal rabbit anti-EGFR antibody (Cell Signaling Technology, #4267, isotype IgG). The sections were washed with PBS 3× and incubated with 1:500 dilution of Alexa Fluor 488-labeled secondary goat anti-rabbit antibody (Invitrogen) for 1 hour at RT. The sections were washed with PBS 3×, and fixed with 4% PFA for 10 min. The sections were then washed with PBS 1×, and mounted with ProLong Gold reagent containing DAPI (Invitrogen). Confocal fluorescence images were collected with DAPI, FITC and Cy5.5 filters with 20× objective (Leica TCS SP5 Microsystems). The mean fluorescence intensities from 3 boxes (dimensions of 30×30 μm2) located completely within the surface epithelium of each specimen were measured. […] Adjacent sections were processed for routine histology (H&E) that was reviewed by two gastrointestinal pathologists (SRO and HDA)."}, "[2]": {"test_system": "HT29, SW480, and SW620 cells", "test": "Flow cytometry binding to colorectal cancer cells", "format": "cell-based, human", "details": "5 μM, 1 hour, 4° C.", "protocol": "HT29, SW480, and SW620 cells were grown to confluence and detached with enzyme-free, PBS-based cell dissociation buffer (Gibco, #13151-014) and cell scrapper. The cells were centrifuged at 1500 rpm for 5 min at 4° C., and then blocked with 0.5% BSA in PBS for 30 min on ice and washed with PBS. […] were incubated with 5 μM of either QRH*-Cy5.5 or PEH*-Cy5 for 1 hour at 4° C. with mixing. Cells incubated with PBS alone were used as control. The cells were centrifuged again, washed 3× with cold PBS, and fixed on ice with 4% PFA for 10 min. Flow cytometry was performed with ˜10^4 cells/sample (BD® LSRII, BD Biosciences), and analyzed with the Flowjo software (Tree Star Inc)."}, "[3]": {"test_system": "high-grade dysplasia in human esophagus", "test": "Binding of QRH*-Cy5.5 to high-grade dysplasia in human esophagus"}, "SW480 cells": {"test_system": "SW480 cells", "test": "Peptide binding to colorectal cancer cells on confocal microscopy (SW480)", "format": "cell-based, human", "details": "SW480, 5 μM, 3 min", "protocol": "as §1, §2"}, "EGFR": {"molecular_target": "EGFR (Homo sapiens, UniProt P00533)", "test": "Co-localization of EGFR peptide and anti-EGFR antibody binding on colorectal cancer cells", "format": "cell-based", "design": "endogenous in cells; host or cells: HT29 human colorectal adenocarcinoma cells (ATCC)", "protocol": "We evaluated co-localization of binding by the QRH*-Cy5.5 peptide and a validated anti-EGFR antibody on cells that overexpress EGFR. A panel of colorectal cancer cells (HT29, SW480, and SW620) was grown on cover slips to […]. QRH*-Cy5.5 at 5 μM concentration was incubated with each cell line for 1 hour at 4° C. The cells were washed and fixed with 4% PFA for 5 min. The cells were incubated with primary anti-EGFR antibody and secondary AF488-labeled antibody, as described previously. We applied the peptide rather than the antibody to the cells first because the peptide has a lower affinity and in the lower concentration (<10 μM) is less likely to interfere with antibody binding. Confocal fluorescence images were collected with FITC, Cy5.5, and DAPI filters using a 63× oil-immersion objective."}, "SW620 cells": {"test_system": "SW620 cells", "test": "Peptide binding to colorectal cancer cells on confocal microscopy (SW620)", "format": "cell-based, human", "details": "SW620, 5 μM, 3 min", "protocol": "as §1, §2"}, "[4]": {"test_system": "human biliary tract epithelium", "test": "Immunofluorescence of QRH*-Cy5.5 on human biliary tract epithelium"}, "HT29 cells [5]": {"test_system": "HT29 cells", "test": "Apparent dissociation constant on flow cytometry", "format": "binding, human", "details": "4° C., 1 hour", "protocol": "We measured the apparent dissociation constant of the peptide to HT29 cells as an assessment of binding affinity. QRH*-Cy5.5 was serially diluted in PBS at concentrations of 0, 10, 25, 50, 75, 100, 125, 150 and 200 nM. HT29 cells (˜10^5) were incubated with QRH*-Cy5.5 at 4° C. for 1 hour, washed with cold PBS, and the mean fluorescence intensities were measured on flow cytometry. The equilibrium dissociation constant kd=1/ka was calculated by performing a least squares fit of the data to the non-linear equation […]. I0 and Imax are the initial and maximum fluorescence intensities, corresponding to no peptide and at saturation, respectively, and [X] represents the concentration of the bound peptide [Thomas et al., Clin Exp Metastasis, 26:105-119 (2009)]. Origin 6.1 data analysis software (OriginLab Corp) was used to calculate kd."}}, "note": "pKd: −log10 of the molar value."}
{"substance": "QRHKPRE (SEQ ID NO: 1) with Cy5.5 fluorophore attached via a GGGSK linker (SEQ ID NO: 18) on the C-terminus [QRH*-Cy5.5]", "values": [{"measurement": "fluorescence intensity of binding (mean±std)", "setting": "HT29 cells [1]", "result": "3.6±0.6"}, {"measurement": "average fold-change for dysplasia compared to normal", "setting": "human colonic dysplasia", "result": 19.4}, {"measurement": "log transformed fluorescence intensity, mean (±std)", "setting": "human colonic dysplasia; dysplasia (n=29)", "result": "1.04±0.54"}, {"measurement": "log transformed fluorescence intensity, mean (±std)", "setting": "human colonic dysplasia; normal (n=15)", "result": "−0.248±0.49"}, {"measurement": "binding on flow cytometry compared with control peptide", "setting": "[2]", "result": "stronger binding to each cell than PEH*-Cy5.5"}, {"measurement": "staining of high-grade dysplasia (HGD)", "setting": "[3]", "result": "Intense staining"}, {"measurement": "fluorescence intensity of binding (mean±std)", "setting": "SW480 cells", "result": "2.4±0.4"}, {"measurement": "co-localization with AF488-labeled anti-EGFR antibody", "setting": "EGFR; HT29 cells, 5 μM", "result": "co-localize"}, {"measurement": "binding on confocal microscopy", "setting": "EGFR; SW620 cells", "result": "Minimal binding"}, {"measurement": "fluorescence intensity of binding (mean±std)", "setting": "SW620 cells", "result": "1.0±0.3"}, {"measurement": "staining on immunofluorescence", "setting": "[4]; biliary intraepithelial neoplasia (BilIN) and biliary tract cancer", "result": "intense staining"}, {"measurement": "staining on immunofluorescence", "setting": "[4]; normal biliary tract epithelium", "result": "minimal staining"}, {"measurement": "pKd", "setting": "HT29 cells [5]", "result": 7.30}]}
